Data taken from patent US9676773B2, “Azaindole derivative” (TAIHO PHARMACEUTICAL CO., LTD., priority 2014, dated 2017).

Experiments:
Assay type in all cases: biochemical
[1] = target: T1, purified recombinant human JAK1 protein (Homo sapiens, UniProt P23458); assay: Measurement of JAK1 kinase-inhibitory activity; conditions: substrate peptide 1 μM, ATP 75 M (so in the source), 25° C., 120 minutes
T1 construct: purchased Carna Biosciences, Inc
Description: 1) Measurement of JAK1 Kinase-Inhibitory Activity
The activity of the compound of the present invention to inhibit the activity of JAK1 kinase was measured.
(§1) Among materials for the measurement of this inhibitory activity, a substrate peptide and a kinase protein were acquired as follows. As such a substrate peptide, a substrate peptide for QSS Assist™ JAK1-MSA assay kit (Carna Biosciences, Inc.) was purchased. As such a kinase protein, a purified recombinant human JAK1 protein (Carna Biosciences, Inc.) was purchased.
The method for measuring the inhibitory activity is as follows. First, the compounds of the present invention were each dissolved in dimethyl sulfoxide (DMSO), and a serial dilution was then prepared by the use of DMSO. Subsequently, a serial dilution solution of the compound (the final concentration of DMSO upon a kinase reaction: 5.0%) or DMSO (final concentration: 5.0%) was mixed with a solution containing the substrate peptide (final concentration: 1 μM), magnesium chloride (final concentration: 5 mM) and ATP (final concentration: 75 µM) in a buffer for kinase reaction (20 mM HEPES (pH 7.5), 2 mM dithiothreitol and 0.01% Triton X-100). Thereafter, a JAK1 protein was further added to the mixed solution, and the obtained mixture was then incubated at 25° C. for 120 minutes to carry out a kinase reaction. To the reaction solution, EDTA was added to a final concentration of 30 mM, so as to terminate the reaction. Finally, with LabChip EZ Reader II (Perkin Elmer Corp.), an unphosphorylated substrate peptide (S) and a phosphorylated peptide (P) were subjected to microchannel capillary electrophoresis, so that the two peptides were separated from each other and were then detected. The amount of a phosphorylation reaction was obtained based on the heights of the peaks of S and P, and the concentration of the compound capable of inhibiting 50% of the phosphorylation reaction was defined as an IC50 value (nM).

[2] = target: T2, purified recombinant human JAK2 protein (Homo sapiens, UniProt O60674); assay: Measurement of JAK2 kinase-inhibitory activity; conditions: FL-Peptide 22 1 μM, ATP 10 μM, 25° C., 80 minutes
T2 construct: purchased Carna Biosciences, Inc
T2 sequence (O60674 whole entry): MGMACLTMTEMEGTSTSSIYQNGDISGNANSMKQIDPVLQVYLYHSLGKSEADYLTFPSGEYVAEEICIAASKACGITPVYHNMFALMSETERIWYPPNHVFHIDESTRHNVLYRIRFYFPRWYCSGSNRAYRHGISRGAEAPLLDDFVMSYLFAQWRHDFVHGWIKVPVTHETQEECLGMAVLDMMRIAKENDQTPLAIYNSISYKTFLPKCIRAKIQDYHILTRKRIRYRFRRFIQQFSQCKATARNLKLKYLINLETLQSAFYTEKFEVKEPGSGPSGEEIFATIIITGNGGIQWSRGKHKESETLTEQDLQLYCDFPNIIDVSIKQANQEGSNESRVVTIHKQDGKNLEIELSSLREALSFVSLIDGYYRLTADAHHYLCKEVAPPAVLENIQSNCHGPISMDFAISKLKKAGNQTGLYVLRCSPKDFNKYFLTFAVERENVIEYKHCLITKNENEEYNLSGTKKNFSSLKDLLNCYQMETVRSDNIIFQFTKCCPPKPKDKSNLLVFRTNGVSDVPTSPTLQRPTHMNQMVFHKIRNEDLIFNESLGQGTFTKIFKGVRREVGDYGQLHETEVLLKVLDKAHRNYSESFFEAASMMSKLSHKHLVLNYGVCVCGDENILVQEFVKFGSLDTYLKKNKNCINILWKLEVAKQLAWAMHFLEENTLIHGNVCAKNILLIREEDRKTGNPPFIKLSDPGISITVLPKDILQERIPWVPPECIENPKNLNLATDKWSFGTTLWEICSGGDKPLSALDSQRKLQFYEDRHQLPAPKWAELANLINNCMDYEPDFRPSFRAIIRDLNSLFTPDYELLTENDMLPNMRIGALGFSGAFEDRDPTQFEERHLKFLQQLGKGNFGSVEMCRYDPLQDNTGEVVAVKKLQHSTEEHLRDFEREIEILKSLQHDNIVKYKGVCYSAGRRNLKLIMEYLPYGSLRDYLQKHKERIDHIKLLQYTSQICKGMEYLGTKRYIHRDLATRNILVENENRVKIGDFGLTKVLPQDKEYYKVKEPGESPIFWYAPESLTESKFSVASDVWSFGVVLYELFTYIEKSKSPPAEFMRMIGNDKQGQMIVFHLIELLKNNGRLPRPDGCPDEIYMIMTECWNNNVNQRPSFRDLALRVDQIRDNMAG
Description: 2) Measurement of JAK2 Kinase-Inhibitory Activity
The activity of the compound of the present invention to inhibit the activity of JAK2 kinase was measured.
as §1, with “FL-Peptide 22 (Perkin Elmer Corp.)” for “a substrate peptide for QSS Assist™ JAK1-MSA assay kit (Carna Biosciences, Inc.)”, “JAK2” for “JAK1”
(§2) The method for measuring the inhibitory activity is as follows. First, a serial dilution of the compound of the present invention was prepared by the same method as that described in the above section regarding JAK1. This serial dilution solution (the final concentration of DMSO upon a kinase reaction: 5.0%) or DMSO (final concentration: 5.0%) was mixed with a solution containing the substrate peptide (final concentration: 1 μM), magnesium chloride (final concentration: 10 mM) and ATP (final concentration: 10 μM) in a buffer for kinase reaction (15 mM Tris (pH 7.5), 2 mM dithiothreitol and 0.01% Tween 20). Thereafter, a JAK2 protein was further added to the mixed solution, and the obtained mixture was then incubated at 25° C. for 80 minutes to carry out a kinase reaction. To the reaction solution, EDTA was added to a final concentration of 30 mM, so as to terminate the reaction. After termination of the reaction, the measurement and the data analysis were carried out by the same methods as those described in the above section regarding JAK1.

[3] = target: T3, purified recombinant human JAK3 protein (Homo sapiens, UniProt P52333); assay: Measurement of JAK3 kinase-inhibitory activity; conditions: substrate peptide 1 μM, ATP 5 μM, 25° C., 80 minutes
T3 construct: purchased Carna Biosciences, Inc
T3 sequence (P52333 1-1124): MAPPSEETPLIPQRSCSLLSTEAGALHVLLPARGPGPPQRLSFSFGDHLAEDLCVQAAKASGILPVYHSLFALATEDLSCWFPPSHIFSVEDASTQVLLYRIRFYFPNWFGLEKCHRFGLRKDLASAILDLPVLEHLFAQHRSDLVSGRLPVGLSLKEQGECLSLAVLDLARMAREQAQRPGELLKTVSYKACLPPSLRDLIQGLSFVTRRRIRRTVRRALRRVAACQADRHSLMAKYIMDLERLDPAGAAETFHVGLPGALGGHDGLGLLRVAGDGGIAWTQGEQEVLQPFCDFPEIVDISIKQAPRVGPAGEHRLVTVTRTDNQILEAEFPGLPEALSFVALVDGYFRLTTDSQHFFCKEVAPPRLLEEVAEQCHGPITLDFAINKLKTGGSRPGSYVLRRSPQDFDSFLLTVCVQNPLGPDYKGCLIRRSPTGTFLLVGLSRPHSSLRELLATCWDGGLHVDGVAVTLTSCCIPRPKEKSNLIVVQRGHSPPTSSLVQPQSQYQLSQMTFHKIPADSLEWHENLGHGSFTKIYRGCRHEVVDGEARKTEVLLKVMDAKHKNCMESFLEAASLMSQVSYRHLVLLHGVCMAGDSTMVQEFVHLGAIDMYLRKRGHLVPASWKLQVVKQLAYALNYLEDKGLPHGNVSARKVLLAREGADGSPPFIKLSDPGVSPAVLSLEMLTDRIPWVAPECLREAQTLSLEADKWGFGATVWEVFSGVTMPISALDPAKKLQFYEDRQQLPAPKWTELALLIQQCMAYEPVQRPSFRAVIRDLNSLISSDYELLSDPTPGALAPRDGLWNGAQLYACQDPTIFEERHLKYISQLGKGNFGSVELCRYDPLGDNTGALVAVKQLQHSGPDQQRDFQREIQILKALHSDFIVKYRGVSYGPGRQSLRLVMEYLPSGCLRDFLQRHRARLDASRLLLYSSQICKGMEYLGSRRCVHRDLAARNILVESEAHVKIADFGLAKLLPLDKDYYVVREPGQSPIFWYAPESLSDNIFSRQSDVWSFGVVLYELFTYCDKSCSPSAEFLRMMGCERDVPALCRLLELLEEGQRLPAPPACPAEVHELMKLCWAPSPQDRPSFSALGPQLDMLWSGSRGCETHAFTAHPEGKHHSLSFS
Description: 3) Measurement of JAK3 Kinase-Inhibitory Activity
The activity of the compound of the present invention to inhibit the activity of JAK3 kinase was measured.
as §1, with “JAK3-MSA” for “JAK1-MSA”, “JAK3” for “JAK1”
as §2, with “5” for “10”, “(20” for “(15”, “HEPES” for “Tris”, “Triton X-100).” for “Tween 20).”, “JAK3” for “JAK2”

T1 sequence (P23458 whole entry): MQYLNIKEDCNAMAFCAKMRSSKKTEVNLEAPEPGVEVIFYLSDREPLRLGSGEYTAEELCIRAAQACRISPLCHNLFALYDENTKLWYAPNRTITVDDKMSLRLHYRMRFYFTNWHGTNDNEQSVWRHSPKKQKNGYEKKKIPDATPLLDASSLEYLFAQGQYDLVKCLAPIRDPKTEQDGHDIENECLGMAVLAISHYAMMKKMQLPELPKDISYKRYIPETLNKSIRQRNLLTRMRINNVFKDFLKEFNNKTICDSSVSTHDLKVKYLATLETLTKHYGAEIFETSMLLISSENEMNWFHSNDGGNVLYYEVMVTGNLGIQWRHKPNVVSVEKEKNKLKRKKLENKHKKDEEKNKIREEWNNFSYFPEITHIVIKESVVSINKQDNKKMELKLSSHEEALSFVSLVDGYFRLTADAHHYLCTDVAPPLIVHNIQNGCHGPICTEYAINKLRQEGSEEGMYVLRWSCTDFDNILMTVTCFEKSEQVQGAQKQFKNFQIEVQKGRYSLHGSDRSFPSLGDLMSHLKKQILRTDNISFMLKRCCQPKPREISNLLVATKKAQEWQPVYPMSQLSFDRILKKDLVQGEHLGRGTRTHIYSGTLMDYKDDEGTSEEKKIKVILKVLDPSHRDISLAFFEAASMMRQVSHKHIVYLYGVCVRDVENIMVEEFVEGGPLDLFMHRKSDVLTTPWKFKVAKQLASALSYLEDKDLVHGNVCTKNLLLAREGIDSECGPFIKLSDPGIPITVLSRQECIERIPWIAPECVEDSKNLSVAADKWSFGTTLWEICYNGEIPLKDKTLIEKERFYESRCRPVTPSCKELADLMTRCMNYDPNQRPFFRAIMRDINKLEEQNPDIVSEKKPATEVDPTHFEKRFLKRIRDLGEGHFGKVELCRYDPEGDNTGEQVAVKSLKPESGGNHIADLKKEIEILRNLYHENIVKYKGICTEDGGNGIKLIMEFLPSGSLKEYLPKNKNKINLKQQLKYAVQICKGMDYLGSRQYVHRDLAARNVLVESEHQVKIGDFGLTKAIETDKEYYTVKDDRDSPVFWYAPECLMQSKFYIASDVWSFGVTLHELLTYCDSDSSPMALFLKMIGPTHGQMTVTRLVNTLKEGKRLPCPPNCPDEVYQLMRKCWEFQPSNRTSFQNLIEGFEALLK

Row | IC50 [1] [nM] | IC50 [2] [nM] | IC50 [3] [nM] | Structure (SMILES)
1 | 2400 | 430 | < 0.3 | C=CC(=O)NC1CCC=C(c2ccnc3[nH]cc(-c4ccc(C=O)o4)c23)C1 (stereo not drawn) [Compound 9, N-(3-(3-(5-Formylfuran-2-yl)-1H-pyrrolo[2,3-b]pyridin-4-yl)cyclohex-3-en-1-yl)acrylamide]
2 | 7000 | 2600 | 0.53 | C=CC(=O)NC1CCC=C(c2ccnc3[nH]cc(-c4cccnc4)c23)C1 (stereo not drawn) [Compound 4, N-(3-(3-(Pyridin-3-yl)-1H-pyrrolo[2,3-b]pyridin-4-yl)cyclohex-3-en-1-yl)acrylamide]
